Test results taken from patent publication US12636379B2, “Microbubble-chemotherapeutic agent complex for sonodynamic therapy” (UNIVERSITY OF ULSTER, priority 2015, dated 2026).

Assays:
BxPc-3 tumours = experiment: In vivo cytotoxicity: intratumoural treatment of ectopic xenograft tumours, tumour volume; design: species or system mice; conditions: 9 days after single intratumoural treatment; 440 μM gemcitabine or 5-FU alone; mix (90.8 μM RB, 440 μM 5FU) +US
From the text: FIG. 8 is a plot of (a) % change in tumour volume and (b) average body weight for mice treated with (i) no treatment (open diamonds) (ii) ultrasound only (filled diamonds) (iii) gemcitabine (open triangles) (iv) O2MB-RB/O2MB-5FU mix-US (open circles) (v) O2MB-RB+US (filled squares) (vi) O2MB-RB/O2MB-5FU mix+US (filled circles). Not shown for ease of illustration are treatments with 5-FU alone, O2MB-RB-US, O2MB-5FU+US, O2MB-5FU-US. The RB, 5-FU and gemcitabine concentrations were kept constant in each case at 0.184 mg/kg (90.8 μM), 0.115 mg/kg (440 μM) and 0.264 mg/kg (440 μM) respectively. Ultrasound treatment was delivered for 30 sec at frequency of 1 MHz, an ultrasound power density of 3.0 Wcm^−2 and a duty cycle of 50%, pulse frequency=100 Hz. […]
BxPc-3 cells were maintained in RPMI-1640 medium supplemented with 10% foetal calf serum as described above. […] Once the tumours had reached an average volume of 218 mm^3, calculated from the geometric mean diameter using the equation tumour volume=4πR^3/3, animals were randomly distributed into 10 groups (n=4). […] After treatment, animals were allowed to recover from anaesthesia and tumour volume and body weight were recorded daily for nine days. The % increase in tumour volume was calculated employing the pre-treatment measurements for each group.

ectopic BxPC-3 tumours = experiment: Systemic (IP) gemcitabine therapy of ectopic tumours, tumour volume; type: in vivo, mice; conditions: 120 mg/kg IP on days 0, 3 and 8
Method: FIG. 9 is a plot of % change in tumour volume for mice treated with IP gemcitabine (120 mg/kg on days 0, 3 and 8) (filled squares) or vehicle only (filled diamonds). Error bars represent+the standard error where n=4.
In order to compare the effectiveness of the combined SDT/5-FU therapy against systemic gemcitabine therapy, we treated mice bearing ectopic BxPC-3 tumours with gemcitabine (120 mg/kg) administered by intraperitoneal (IP) injection on days 0, 3 and 8. Tumour volume was measured daily as before and compared to untreated animal controls.

MIA PaCa-2 cells = experiment: Combined antimetabolite/sonodynamic therapy with free agents, MTT assay; conditions: 3 μM RB and/or 50 μM 5FU, 3 h; US 30 sec, 1 MHz; MTT 24 h; n=6
Method: The cells were incubated with either 3 μM RB and 50 μM 5FU (or both) for 3 h as these represent sub-lethal doses and enabled synergy to be identified if evident. Ultrasound exposure was 30 sec, 3 W/cm^2, 1 MHz, 50% duty cycle; pulse repetition frequency of […]. Cell viability was determined 24 h following treatment using a MTT assay.
Human primary pancreatic adenocarcinoma cell lines MIA PaCa-2 were maintained in Dulbecco's Modified Eagle's Medium and supplemented with 10% (v/v) foetal bovine serum in a humidified 5% CO2 atmosphere at 37° C. The cells were plated into the wells of a 96-well plate at a concentration of 4×10^3 cells per well and incubated for 21 h at 37° C. in a humidified 5% CO2 atmosphere. The medium was then removed and wells treated with either Rose Bengal, ([…]), 5-Fluorouracil (50 μM) or a combination of both RB (3 μM) and 5-FU (50 μM) for 3 h. The drug solutions were then removed, fresh media added and selected wells treated with ultrasound delivered using a Sonidel SP100 sonoporator (30 sec, frequency=1 MHz, ultrasound power density=3.0 Wcm^−2, duty cycle=50% with pulse repetition frequency=100 Hz). The cells were then incubated for 24 h before cell viability was determined using a MTT assay.

Bcl2 = conditions: MIA PaCa-2 pancreatic cancer xenograft model; cited from earlier work
[1] = Fluorescence emission spectra compared with Cardio Green; type: physicochemical
From the text: The new compounds clearly show similar absorption profiles to Cardio Green. […] This is attributed to increased ISC due to the additional iodine atoms.

[2] = Singlet oxygen production (SOSG intensity) on 780 nm excitation; type: physicochemical; conditions: excited at 780 nm
From the text: Increased SOSG intensity is indicative of singlet oxygen production.

Mia Paca cells = experiment: In vitro cytotoxicity with 780 nm irradiation; type: cell-based; conditions: exposed to 780 nm irradiation
BxPC-3 cells = experiment: In vitro cytotoxicity with 780 nm irradiation; type: cell-based; conditions: exposed to 780 nm irradiation
[3] = system: HeLa cervical cancer cell line; experiment: In vitro cytotoxicity with 780 nm excitation; type: cell-based; conditions: excited at 780 nm
[4] = system: ectopic BxPC-3 pancreatic tumors; experiment: Tumour localisation after tail vein administration; type: in vivo, mice; conditions: 18 hours following tail vein administration

Row | SMILES | tumour growth over original starting volume (BxPc-3 tumours) | reduction in cell viability with ultrasound relative to the same treatment without ultrasound (MIA PaCa-2 cells) | fluorescence emission in comparison to cardio green [1] | singlet oxygen production [2] | cytotoxicity compared with cardio green (Mia Paca cells) | cytotoxicity compared with cardio green (BxPC-3 cells) | toxicity compared with Cardio Green [3] | other results
1 | Nc1ccn([C@@H]2O[C@H](CO)[C@@H](O)C2(F)F)c(=O)n1 [gemcitabine] | 125.1% |  |  |  |  |  |  | tumour volume relative to starting tumour volume (ectopic BxPC-3 tumours): at no point in the therapy did the tumour volume decrease below the starting tumour volume; tumour volume increase (ectopic BxPC-3 tumours; control group about 100%): 38%; increase in tumour volume at day 6 (ectopic BxPC-3 tumours; day 6): 20%
2 | O=c1[nH]cc(F)c(=O)[nH]1 [Compound 5-FU, 5-fluorouracil] | 123.3% | 5.9% |  |  |  |  |  | 
3 | CN1CCN(CCCNc2cc3c4c(c(NCCCN5CCN(C)CC5)cc5c4c2C(=O)N(CCCN2CCOCC2)C5=O)C(=O)N(CCCN2CCOCC2)C3=O)CC1 [MM41] |  |  |  |  |  |  |  | reduction of Bcl2 levels at the protein level (Bcl2): 40%
4 | O=C1OC2(c3cc(I)c(O)c(I)c3Oc3c2cc(I)c(O)c3I)c2c(Cl)c(Cl)c(Cl)c(Cl)c21 [RB, Rose Bengal] |  | 11.1% |  |  |  |  |  | 
5 | CC1(C)C(/C=C/C2=C(Cl)C(=C/C=C3/N(CCCCS(=O)(=O)O)c4cc(I)cc(I)c4C3(C)C)/CCC2)=[N+](CCCCS(=O)(=O)O)c2cc(I)cc(I)c21 [Compound I4-IRCYDYE, 2-((E)-2-((E)-2-chloro-3-((E)-2-(4,6-diiodo-3,3-dimethyl-1-(4-sulfobutyl)indolin-2-ylidene)ethylidene)cyclohex-1-en-1-yl)vinyl)-4,6-diiodo-3,3-dimethyl-1-(4-sulfobutyl)-3H-indol-1-ium] |  |  | considerably quenched | more singlet oxygen than Cardio Green | significantly more cytotoxic | significantly more cytotoxic | more toxic | 
6 | CC1(C)C(/C=C/C2=C(Cl)C(=C/C=C3/N(CCCCS(=O)(=O)O)c4ccc(I)cc4C3(C)C)/CCC2)=[N+](CCCCS(=O)(=O)O)c2ccc(I)cc21 [Compound I2-IRCYDYE, 2-((E)-2-((E)-2-chloro-3-((E)-2-(5-iodo-3,3-dimethyl-1-(4-sulfobutyl)indolin-2-ylidene)ethylidene)cyclohex-1-en-1-yl)vinyl)-5-iodo-3,3-dimethyl-1-(4-sulfobutyl)-3H-indol-1-ium] |  |  | remains similar to cardiogreen | more singlet oxygen than Cardio Green | significantly more cytotoxic | significantly more cytotoxic | more toxic | tumour localisation [4]: localises in tumor
